In patent publication US20240254157A1, “MACROLIDE COMPOUNDS” (VANDERBILT UNIVERSITY, priority 2021, published 2024):
Read-outs that look alike come from different tables or passages of the source.

Columns and labels:
[1] = tested on: primary AML patient samples; assay: Cell viability GI50 against primary AML patient samples (CellTiter-Glo); format: cell-based
Experimental: Compounds were diluted in DMSO (<0.05% DMSO) and dispensed into a 384-well plate using the Echo 555 liquid handler (Labcyte). Following the addition of compounds, cells were pipetted into the 384-well plates at a concentration of between 2,000 and 8,000 cells per well in IMDM or RPMI media, as noted above, supplemented with 10% FBS and incubated at 37° C., 5% CO2 in a tissue culture incubator. Plates were incubated for 48 hours, and cell viability was measured using the CellTiter-Glo reagent (Promega). Percent viability was defined as relative luminescence units (RLU) of each well divided by the RLU of cells in DMSO control. Dose-response curves and GI50 values were determined using linear regression of double-log transformed data (GraphPad Prism version 6.0 h). Control bone marrow-derived CD34+ cells were purchased from STEMCELL Technologies.

[2] = tested on: MV-4-11 cell line derived xenograft; assay: MV-4-11 cell line derived xenograft model; format: in vivo
[3] = tested on: E1A oncogene transformed cell lines; details: cited from earlier work
[4] = tested on: untransformed lines; details: cited from earlier work
[5] = tested on: NCI-60 cell lines that do not exhibit the Warburg effect; details: cited from earlier work

Structure (SMILES)	GI50 ([1]; patient sample 17-03-006, data collected Jul. 8, 2021, read-out: GI50 from double log regression (converted)) [nM]	GI50 ([1]; patient sample 17-03-006, data collected Jul. 8, 2021, read-out: viability GI50 from Prism) [nM]	GI50 ([1]; patient sample 17-03-006, data collected Mar. 8, 2022, read-out: GI50 from double log regression (converted)) [nM]	GI50 ([1]; patient sample 17-03-006, data collected Mar. 8, 2022, read-out: viability GI50 from Prism) [nM]	GI50 ([1]; patient sample 18-12-001, data collected Jul. 8, 2021, read-out: GI50 from double log regression (converted)) [nM]	GI50 ([1]; patient sample 18-12-001, data collected Jul. 8, 2021, read-out: viability GI50 from Prism) [nM]	GI50 ([1]; patient sample 18-12-001, data collected Mar. 8, 2022, read-out: GI50 from double log regression (converted)) [nM]	GI50 ([1]; patient sample 29-09-002, data collected Jul. 8, 2021, read-out: GI50 from double log regression (converted)) [nM]	GI50 ([1]; patient sample 29-09-002, data collected Jul. 8, 2021, read-out: viability GI50 from Prism) [nM]	efficacy in xenograft model [2]	potency against transformed cells ([3]; transformed cells) [nM]	fold more potent against transformed cells than untransformed lines ([3]; transformed vs untransformed)	potency against untransformed lines [4] [nM]	activity in NCI-60 cell lines relying on oxidative phosphorylation [5]
COCCC[C@H]1O[C@@](O)([C@H](C)[C@@H]2C[C@H](OC)[C@H](O)\C=C(C)/C=C(C)\C=C(\C)[C@@H](O[C@@H]3O[C@@H](C)[C@H](O)[C@@H](O)[C@@H]3O)[C@H](C)\C=C(C)/C=C(OC)\C=C(\C)C(=O)O2)[C@H](OC)[C@@H](O)[C@]1(C)O[C@H]1C[C@H](O)[C@H](O[C@H]2C[C@@](C)(O)[C@H](O)[C@@H](C)O2)[C@@H](C)O1 [ammocidin A]	32.1	10.3	30.8	9.5	31.2	30.2	75.4	21.7	15.8	comparable efficacy				
COC[C@@H](C[C@H]1O[C@@](O)([C@H](O)[C@@H]2C[C@H](OC)[C@@H](O)CC/C=C(C)/C=C/[C@@H](O[C@@H]3O[C@@H](C)[C@H](OC)[C@@H](O)[C@@H]3O)[C@H](C)/C=C(C)/C=C(C)/C=C(\C)C(=O)O2)[C@H](C)[C@@H](O)[C@H]1C)OC1C[C@](C)(O)[C@@H](O[C@H]2C[C@@H](OC)[C@H](O)[C@@H](C)O2)[C@H](C)O1 (some centres unmarked) [apoptolidin, Apoptolidin A]											10	1,000 fold	10000	low nanomolar
